Measured values as given in patent publication US10633419B2, “Immunomodulators” (BRISTOL-MYERS SQUIBB COMPANY, priority 2014, dated 2020).
pIC50: −log10 of the molar value. Starred links: 1 amine or outer side, 2 acyl side, 3 side chain; linkers in the order of their positions; H or OH if unused. Positions of bridges follow the written chain, without caps; N, C: chain ends. Non-standard residues stand in square brackets, D forms with d. Residues, ends and D or L forms follow the SMILES beside them. ξ: configuration not given here. *: point of attachment. X12 = O=C(O)CCCCCCCCCCCCCCCCCCC(=O)N[C@@H](CCC(=O)NCCCOCCOCCOCCCN*)C(=O)O; Dap(Nα-HOOC(CH2)16CO)OH = O=C(O)CCCCCCCCCCCCCCCCC(=O)N[C@@H](CN*)C(=O)O; X18 = O=C(O)CCCCCCCCCCCCCCC(=O)N[C@@H](CC(=O)NCCCOCCOCCOCCCN*)C(=O)O; Trp(1-CH2COOH) = N[C@@H](Cc1cn(CC(=O)O)c2ccccc12)C(=O)O; X14 = O=C(O)CCCCCCCCCCNC(=O)CCC(=O)NCCCOCCOCCOCCCN*; X9 = O=C(O)CCCCCCCCCCCCCCCCC(=O)N[C@@H](CCN*)C(=O)O; X10 = O=C(O)CCCCCCCCCCCCCCC(=O)N[C@@H](CN*)C(=O)O; γGlu = O=C(O)[C@H](CCC(=O)[*:2])N[*:1]; d(cisHyp) = O=C(O)[C@H]1C[C@@H](O)CN1; βAsp = O=C(O)[C@H](CC(=O)[*:2])N[*:1]; ξPro(4R-OH) = O=C(O)C1C[C@@H](O)CN1; PEG6 = NCCOCCOCCOCCOCCOCCOCCC(=O)O; Hyp = O=C(O)[C@@H]1C[C@@H](O)CN1; dHyp = O=C(O)[C@H]1C[C@H](O)CN1; Undecanoyl = CCCCCCCCCCC(=O)*; NMeNle = CCCC[C@H](NC)C(=O)O; Pip = O=C(O)[C@@H]1CCCCN1; NMeA = CN[C@@H](C)C(=O)O; Pra = C#CC[C@H](N)C(=O)O; Aun = NCCCCCCCCCCC(=O)O; Dab = NCC[C@H](N)C(=O)O; Dap = NC[C@H](N)C(=O)O; βAla = NCCC(=O)O

The compounds below were run against T1, PD-L1 (Homo sapiens, UniProt Q9NZQ7) (assay: PD-1/PD-L1 Homogenous Time-Resolved Fluorescence (HTRF) binding assay (PD-1-Ig/PD-L1-His)). Conditions: inhibition of PD-1-Ig binding to PD-L1-TVMV-His; value given as number; read-out: HTRF IC50.
T1 construct: hPDL1(19-239)-TVMV-His; made in house; host or cells: HEK293T
Summary of the method: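 Inhibitors pre-incubated 15 min with PD-L1-His (10 nM final), then PD-1-Ig (20 nM final) added for 15 min in dPBS/0.1% BSA/0.05% Tween-20. Eu-cryptate anti-Ig (1 nM) and APC anti-His (20 nM) added, 30 min equilibration, 665/620 nm HTRF ratio read.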

T1 sequence (Q9NZQ7 with tags, fused parts or gaps): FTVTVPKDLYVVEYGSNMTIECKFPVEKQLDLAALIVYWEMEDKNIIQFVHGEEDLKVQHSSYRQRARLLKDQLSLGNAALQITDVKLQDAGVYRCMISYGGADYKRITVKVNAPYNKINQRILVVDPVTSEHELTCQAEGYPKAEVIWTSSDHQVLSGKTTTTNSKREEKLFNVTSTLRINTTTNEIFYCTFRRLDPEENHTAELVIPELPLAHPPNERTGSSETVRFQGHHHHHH

pIC50 | Compound
7.85 | CCCC[C@H]1C(=O)N(C)[C@@H](CCCC)C(=O)N[C@@H](CC(C)C)C(=O)N[C@H](C(=O)NCC(=O)N[C@@H](Cc2cn(CCOCCOCCOCCOCCOCCOCCOCCOCCOCCOCCOCCNC(=O)C[C@H](NC(=O)CCCCCCCCCCCCCCCCC(=O)O)C(=O)O)nn2)C(=O)O)CSCC(=O)N[C@@H](Cc2ccc(O)cc2)C(=O)N(C)[C@@H](C)C(=O)N[C@@H](CC(N)=O)C(=O)N2CCC[C@H]2C(=O)N[C@@H](CN)C(=O)N[C@@H](CC(C)C)C(=O)N2C[C@H](O)C[C@H]2C(=O)N[C@@H](Cc2c[nH]c3ccccc23)C(=O)N[C@@H](CCN)C(=O)N[C@@H](Cc2cn(CC(=O)O)c3ccccc23)C(=O)N1C [Example 14103]
7.26 | CCCCCCCCCCC(=O)NCCCC[C@H](NC(=O)[C@H](CC(=O)O)NC(=O)CNC(=O)CNC(=O)CNC(=O)[C@@H]1CSCC(=O)N[C@@H](Cc2ccc(O)cc2)C(=O)N(C)[C@@H](C)C(=O)N[C@@H](CC(N)=O)C(=O)N2CCC[C@H]2C(=O)N[C@@H](CCN)C(=O)N[C@@H](CC(C)C)C(=O)N2C[C@H](O)C[C@H]2C(=O)N[C@@H](Cc2c[nH]c3ccccc23)C(=O)N[C@@H](CO)C(=O)N[C@@H](Cc2c[nH]c3ccccc23)C(=O)N(C)[C@@H](CCCC)C(=O)N(C)[C@@H](CCCC)C(=O)N[C@@H](CCCNC(=N)N)C(=O)N1)C(N)=O [Example 11003] ({CH2CO}-Y[NMeA]NP[Dab]L[Hyp]WSW[NMeNle][NMeNle]RCGGGDK(Undecanoyl)-NH2; thioether N-14)

Same assay, conditions: inhibition of PD-1-Ig binding to PD-L1-TVMV-His; value given as range class; read-out: HTRF IC50

Compound | pIC50
CCCC[C@H]1C(=O)N(C)[C@@H](CCCC)C(=O)N[C@@H](CC(C)C)C(=O)N[C@H](C(=O)NCC(=O)N[C@@H](CC(=O)NCCC(=O)NCC[C@H](NC(=O)CCCCCCCCCCCCCCCCC(=O)O)C(=O)O)C(=O)O)CSCC(=O)N[C@@H](Cc2ccc(O)cc2)C(=O)N2CCCC[C@H]2C(=O)N[C@@H](CC(N)=O)C(=O)N2CCC[C@H]2C(=O)N[C@@H](CN)C(=O)N[C@@H](CC(C)C)C(=O)N2C[C@H](O)C[C@H]2C(=O)N[C@@H](Cc2c[nH]c3ccccc23)C(=O)N[C@@H](CCN)C(=O)N[C@@H](Cc2cn(CC(=O)O)c3ccccc23)C(=O)N1C [Example 13160] ({CH2CO}-Y[Pip]NP[Dap]L[Hyp]W[Dab][Trp(1-CH2COOH)][NMeNle][NMeNle]LCG[βAsp][βAla]-X9; thioether N-14) | 8.00 to 9.52
C#CC[C@H](NC(=O)CNC(=O)CNC(=O)CNC(=O)[C@@H]1CSCC(=O)N[C@@H](Cc2ccc(O)cc2)C(=O)N(C)[C@@H](C)C(=O)N[C@@H](CC(N)=O)C(=O)N2CCC[C@H]2C(=O)N[C@@H](CN)C(=O)N[C@@H](CC(C)C)C(=O)N2C[C@H](O)C[C@H]2C(=O)N[C@@H](Cc2c[nH]c3ccccc23)C(=O)N[C@@H](CCN)C(=O)N[C@@H](Cc2cn(CC(=O)O)c3ccccc23)C(=O)N(C)[C@@H](CCCC)C(=O)N(C)[C@@H](CCCC)C(=O)N[C@@H](CC(C)C)C(=O)N1)C(=O)O [INT130AB] ({CH2CO}-Y[NMeA]NP[Dap]L[Hyp]W[Dab][Trp(1-CH2COOH)][NMeNle][NMeNle]LCGGG[Pra]-OH; thioether N-14) | 7.00 to 8.00
CCCC[C@H]1C(=O)N(C)[C@@H](CCCC)C(=O)N[C@@H](CCCNC(=N)N)C(=O)N[C@H](C(=O)NCC(=O)NCC(=O)NCC(=O)NCCCCCCCCCCC(=O)O)CSCC(=O)N[C@@H](Cc2ccc(O)cc2)C(=O)N(C)[C@@H](C)C(=O)N[C@@H](CC(=O)O)C(=O)N2CCC[C@H]2C(=O)N[C@@H](Cc2cnc[nH]2)C(=O)N[C@@H](CC(C)C)C(=O)N2C[C@H](O)C[C@H]2C(=O)N[C@@H](Cc2c[nH]c3ccccc23)C(=O)N[C@@H](CO)C(=O)N[C@@H](Cc2c[nH]c3ccccc23)C(=O)N1C [Example 11070] ({CH2CO}-Y[NMeA]DPHL[Hyp]WSW[NMeNle][NMeNle]RCGGG[Aun]-OH; thioether N-14) | 8.00 to 9.52
CCCC[C@H]1C(=O)N(C)[C@@H](CCCC)C(=O)N[C@@H](CC(C)C)C(=O)N[C@H](C(=O)NCCCOCCOCCOCCCNC(=O)CCC(=O)NCCCCCCCCCCC(=O)O)CSCC(=O)N[C@@H](Cc2ccc(O)cc2)C(=O)N(C)[C@@H](C)C(=O)N[C@@H](CC(N)=O)C(=O)N2CCC[C@H]2C(=O)N[C@@H](CN)C(=O)N[C@@H](CC(C)C)C(=O)N2C[C@H](O)C[C@@H]2C(=O)N[C@@H](Cc2c[nH]c3ccccc23)C(=O)N[C@@H](CCN)C(=O)N[C@@H](Cc2cn(CC(=O)O)c3ccccc23)C(=O)N1C [Example 11138] ({CH2CO}-Y[NMeA]NP[Dap]L[d(cisHyp)]W[Dab][Trp(1-CH2COOH)][NMeNle][NMeNle]LC-X14; thioether N-14) | 7.00 to 8.00
C#CC[C@H](NC(=O)CNC(=O)[C@@H]1CSCC(=O)N[C@@H](Cc2ccc(O)cc2)C(=O)N(C)[C@@H](C)C(=O)N[C@@H](CC(=O)O)C(=O)N2CCC[C@H]2C(=O)N[C@@H](Cc2c[nH]cn2)C(=O)N[C@@H](CCCCN)C(=O)N2C[C@H](O)C[C@H]2C(=O)N[C@@H](Cc2c[nH]c3ccccc23)C(=O)N[C@@H](CCCCN)C(=O)N[C@@H](Cc2c[nH]c3ccccc23)C(=O)N(C)[C@@H](CCCC)C(=O)N(C)[C@@H](CCCC)C(=O)N[C@@H](CCC(=O)O)C(=O)N1)C(N)=O [INT 1400F, ClAc-Tyr-mAla-Asp-Pro-His-Lys-Hyp-Trp-Lys-Trp-mNle-mNle-Glu-Cys-Gly-[(S)-propargylglycine]] ({CH2CO}-Y[NMeA]DPHK[Hyp]WKW[NMeNle][NMeNle]ECG[Pra]-NH2; thioether N-14) | 8.00 to 9.52

Second part, the compound after the results:

pIC50 | Compound
7.00 to 8.00 | CCCC[C@H]1C(=O)N(C)[C@@H](CCCC)C(=O)N[C@@H](CC(C)C)C(=O)N[C@H](C(=O)NCCCOCCOCCOCCCNC(=O)C[C@H](NC(=O)CCCCCCCCCCCCCCC(=O)O)C(=O)O)CSCC(=O)N[C@@H](Cc2ccc(O)cc2)C(=O)N(C)[C@@H](C)C(=O)N[C@@H](CC(N)=O)C(=O)N2CCC[C@@H]2C(=O)N[C@@H](CN)C(=O)N[C@@H](CC(C)C)C(=O)N2C[C@@H](O)C[C@@H]2C(=O)N[C@@H](Cc2c[nH]c3ccccc23)C(=O)N[C@@H](CCN)C(=O)N[C@@H](Cc2cn(CC(=O)O)c3ccccc23)C(=O)N1C [Example 11242] ({CH2CO}-Y[NMeA]N[dP][Dap]L[dHyp]W[Dab][Trp(1-CH2COOH)][NMeNle][NMeNle]LC-X18; thioether N-14)
8.00 to 9.52 | CCCC[C@H]1C(=O)N(C)[C@@H](CCCC)C(=O)N[C@@H](CC(C)C)C(=O)N[C@H](C(=O)NCC(=O)N[C@@H](CC(=O)O)C(=O)N[C@@H](CCC(=O)NCCCOCCOCCOCCCNC(=O)CC[C@H](NC(=O)CCCCCCCCCCCCCCCCCCC(=O)O)C(=O)O)C(=O)O)CSCC(=O)N[C@@H](Cc2ccc(O)cc2)C(=O)N(C)[C@@H](C)C(=O)N[C@@H](CC(N)=O)C(=O)N2CCC[C@H]2C(=O)N[C@@H](CN)C(=O)N[C@@H](CC(C)C)C(=O)N2C[C@H](O)CC2C(=O)N[C@@H](Cc2c[nH]c3ccccc23)C(=O)N[C@@H](CCN)C(=O)N[C@@H](Cc2cn(CC(=O)O)c3ccccc23)C(=O)N1C (stereo partly drawn) [Example 11249] ({CH2CO}-Y[NMeA]NP[Dap]L[ξPro(4R-OH)]W[Dab][Trp(1-CH2COOH)][NMeNle][NMeNle]LCGDE(X12)-OH; thioether N-14)
5.80 to 7.00 | CCCC[C@H]1C(=O)N(C)[C@@H](CCCC)C(=O)N[C@@H](CC(C)C)C(=O)N[C@H](C(=O)NCC(=O)N[C@@H](CC(=O)O)C(=O)NCCOCCOCCOCCOCCOCCOCCC(=O)NC[C@H](NC(=O)CCCCCCCCCCCCCCCCC(=O)O)C(=O)O)CSCC(=O)N[C@@H](Cc2ccc(O)cc2)C(=O)N(C)[C@@H](C)C(=O)N[C@@H](CC(N)=O)C(=O)N2CCC[C@H]2C(=O)N[C@@H](CN)C(=O)N[C@@H](CC(C)C)C(=O)N2C[C@H](O)C[C@H]2C(=O)N[C@@H](Cc2c[nH]c3ccccc23)C(=O)N[C@@H](CCN)C(=O)N[C@@H](Cc2cn(CC(=O)O)c3ccccc23)C(=O)N1C [Example 11181] ({CH2CO}-Y[NMeA]NP[Dap]L[Hyp]W[Dab][Trp(1-CH2COOH)][NMeNle][NMeNle]LCGD[PEG6]-{Dap(Nα-HOOC(CH2)16CO)OH}; thioether N-14)
8.00 to 9.52 | CCCC[C@H]1C(=O)N(C)[C@@H](CCCC)C(=O)N[C@@H](CC(C)C)C(=O)N[C@H](C(=O)NCC(=O)N[C@@H](CCC(=O)NCCOCCOCCOCCOCCOCCOCCC(=O)NC[C@H](NC(=O)CCCCCCCCCCCCCCC(=O)O)C(=O)O)C(=O)O)CSCC(=O)N[C@@H](Cc2ccc(O)cc2)C(=O)N(C)[C@@H](C)C(=O)N[C@@H](CC(N)=O)C(=O)N2CCC[C@H]2C(=O)N[C@@H](CN)C(=O)N[C@@H](CC(C)C)C(=O)N2C[C@H](O)C[C@@H]2C(=O)N[C@@H](Cc2c[nH]c3ccccc23)C(=O)N[C@@H](CCN)C(=O)N[C@@H](Cc2cn(CC(=O)O)c3ccccc23)C(=O)N1C [Example 11165] ({CH2CO}-Y[NMeA]NP[Dap]L[d(cisHyp)]W[Dab][Trp(1-CH2COOH)][NMeNle][NMeNle]LCG[γGlu][PEG6]-X10; thioether N-14)
8.00 to 9.52 | CCCC[C@H]1C(=O)N(C)[C@@H](CCCC)C(=O)N[C@@H](CC(C)C)C(=O)N[C@H](C(=O)NCC(=O)N[C@@H](CC(=O)O)C(=O)N[C@@H](CC(=O)NCCCOCCOCCOCCCNC(=O)CC[C@H](NC(=O)CCCCCCCCCCCCCCCCCCC(=O)O)C(=O)O)C(=O)O)CSCC(=O)N[C@@H](Cc2ccc(O)cc2)C(=O)N(C)[C@@H](C)C(=O)N[C@@H](CC(N)=O)C(=O)N2CCC[C@H]2C(=O)N[C@@H](CN)C(=O)N[C@@H](CC(C)C)C(=O)N2C[C@H](O)CC2C(=O)N[C@@H](Cc2c[nH]c3ccccc23)C(=O)N[C@@H](CCN)C(=O)N[C@@H](Cc2cn(CC(=O)O)c3ccccc23)C(=O)N1C (stereo partly drawn) [Example 11250] ({CH2CO}-Y[NMeA]NP[Dap]L[ξPro(4R-OH)]W[Dab][Trp(1-CH2COOH)][NMeNle][NMeNle]LCGDD(X12)-OH; thioether N-14)
